Article PMC7156458, “Synthetic biology based construction of biological activity-related library of fungal decalin-containing diterpenoid pyrones” (Nature Communications, 2020)

Biological target: Aβ42 (Homo sapiens, UniProt P05067)
Assay: Th-T (thioflavin-T) assay of Aβ42 aggregation
Assay type: biochemical
Settings: for Th-T assay plate reading, mean of three wells (Supplementary Fig. 47): source data, Ab alone and No Ab as controls

Chain of Aβ42 (P05067 672-713): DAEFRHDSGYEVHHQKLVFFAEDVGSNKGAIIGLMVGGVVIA

Structure (SMILES): C=C1CC[C@H]2[C@]3(C)C[C@@H](C=C(C)C)O[C@H]3CC[C@]2(C)[C@@H]1Cc1c(O)c(C)c(C)oc1=O [Compound 5, subglutinol A]
- Th-T fluorescence, mean of three wells (Aβ42 aggregation time course, reading M117): 2.674
- Th-T fluorescence, mean of three wells (Aβ42 aggregation time course, reading M118): 2.686
- Th-T fluorescence, mean of three wells (Aβ42 aggregation time course, reading M119): 2.671
- Th-T fluorescence, mean of three wells (Aβ42 aggregation time course, reading M120): 2.6965
- Th-T fluorescence, mean of three wells (Aβ42 aggregation time course, reading M121): 2.686
- Th-T fluorescence, mean of three wells (Aβ42 aggregation time course, reading M122): 2.656
- Th-T fluorescence, mean of three wells (Aβ42 aggregation time course, reading M123): 2.683
- Th-T fluorescence, mean of three wells (Aβ42 aggregation time course, reading M124): 2.652
- Th-T fluorescence, mean of three wells (Aβ42 aggregation time course, reading M125): 2.669
- Th-T fluorescence, mean of three wells (Aβ42 aggregation time course, reading M126): 2.668
- Th-T fluorescence, mean of three wells (Aβ42 aggregation time course, reading M127): 2.67
- Th-T fluorescence, mean of three wells (Aβ42 aggregation time course, reading M128): 2.643
- Th-T fluorescence, mean of three wells (Aβ42 aggregation time course, reading M129): 2.642
- Th-T fluorescence, mean of three wells (Aβ42 aggregation time course, reading M130): 2.649
- Th-T fluorescence, mean of three wells (Aβ42 aggregation time course, reading M131): 2.67
- Th-T fluorescence, mean of three wells (Aβ42 aggregation time course, reading M132): 2.65
- Th-T fluorescence, mean of three wells (Aβ42 aggregation time course, reading M133): 2.648
- Th-T fluorescence, mean of three wells (Aβ42 aggregation time course, reading M134): 2.64
- Th-T fluorescence, mean of three wells (Aβ42 aggregation time course, reading M135): 2.652
- Th-T fluorescence, mean of three wells (Aβ42 aggregation time course, reading M136): 2.674
- Th-T fluorescence, mean of three wells (Supplementary Fig. 47, reading M137): 2.698
- Th-T fluorescence, mean of three wells (Supplementary Fig. 47, reading M138): 2.649
- Th-T fluorescence, mean of three wells (Supplementary Fig. 47, reading M139): 2.636
- Th-T fluorescence, mean of three wells (Supplementary Fig. 47, reading M140): 2.665
- Th-T fluorescence, mean of three wells (Supplementary Fig. 47, reading M141): 2.631
- Th-T fluorescence, mean of three wells (Supplementary Fig. 47, reading M142): 2.63
- Th-T fluorescence, mean of three wells (Supplementary Fig. 47, reading M143): 2.626
- Th-T fluorescence, mean of three wells (Supplementary Fig. 47, reading M144): 2.617
- Th-T fluorescence, mean of three wells (Supplementary Fig. 47, reading M145): 2.644
- Th-T fluorescence, mean of three wells (Supplementary Fig. 47 source data, measurement M37 of time course): 2.596
- Th-T fluorescence, mean of three wells (Supplementary Fig. 47 source data, measurement M38 of time course): 2.604
- Th-T fluorescence, mean of three wells (Supplementary Fig. 47 source data, measurement M39 of time course): 2.6132
- Th-T fluorescence, mean of three wells (Supplementary Fig. 47 source data, measurement M40 of time course): 2.619
- Th-T fluorescence, mean of three wells (Supplementary Fig. 47 source data, measurement M41 of time course): 2.62
- Th-T fluorescence, mean of three wells (Supplementary Fig. 47 source data, measurement M42 of time course): 2.62
- Th-T fluorescence, mean of three wells (Supplementary Fig. 47 source data, measurement M43 of time course): 2.6737
- Th-T fluorescence, mean of three wells (Supplementary Fig. 47 source data, measurement M44 of time course): 2.6589
- Th-T fluorescence, mean of three wells (Supplementary Fig. 47 source data, measurement M45 of time course): 2.678
- Th-T fluorescence, mean of three wells (Supplementary Fig. 47 source data, measurement M46 of time course): 2.668
- Th-T fluorescence, mean of three wells (Supplementary Fig. 47 source data, measurement M47 of time course): 2.664
- Th-T fluorescence, mean of three wells (Supplementary Fig. 47 source data, measurement M48 of time course): 2.673
- Th-T fluorescence, mean of three wells (Supplementary Fig. 47 source data, measurement M49 of time course): 2.687
- Th-T fluorescence, mean of three wells (Supplementary Fig. 47 source data, measurement M50 of time course): 2.7097
- Th-T fluorescence, mean of three wells (Supplementary Fig. 47 source data, measurement M51 of time course): 2.667
- Th-T fluorescence, mean of three wells (Supplementary Fig. 47 source data, measurement M52 of time course): 2.696
- Th-T fluorescence, mean of three wells (Supplementary Fig. 47 source data, measurement M53 of time course): 2.692
- Th-T fluorescence, mean of three wells (Supplementary Fig. 47 source data, measurement M54 of time course): 2.717
- Th-T fluorescence, mean of three wells (Supplementary Fig. 47 source data, measurement M55 of time course): 2.693
- Th-T fluorescence, mean of three wells (Supplementary Fig. 47 source data, measurement M56 of time course): 2.698
- Th-T assay plate reading, mean of three wells (Supplementary Fig. 47) (measurement M1): 0.28
- Th-T assay plate reading, mean of three wells (Supplementary Fig. 47) (measurement M2): 0.2885
- Th-T assay plate reading, mean of three wells (Supplementary Fig. 47) (measurement M3): 0.3145
- Th-T assay plate reading, mean of three wells (Supplementary Fig. 47) (measurement M4): 0.3563
- Th-T assay plate reading, mean of three wells (Supplementary Fig. 47) (measurement M5): 0.4309
- Th-T assay plate reading, mean of three wells (Supplementary Fig. 47) (measurement M6): 0.5173
- Th-T assay plate reading, mean of three wells (Supplementary Fig. 47) (measurement M7): 0.5869
- Th-T assay plate reading, mean of three wells (Supplementary Fig. 47) (measurement M8): 0.6432
- Th-T assay plate reading, mean of three wells (Supplementary Fig. 47) (measurement M9): 0.6839
- Th-T assay plate reading, mean of three wells (Supplementary Fig. 47) (measurement M10): 0.7213
- Th-T assay plate reading, mean of three wells (Supplementary Fig. 47) (measurement M11): 0.7671
- Th-T assay plate reading, mean of three wells (Supplementary Fig. 47) (measurement M12): 0.8255
- Th-T assay plate reading, mean of three wells (Supplementary Fig. 47) (measurement M13): 0.9138
- Th-T assay plate reading, mean of three wells (Supplementary Fig. 47) (measurement M14): 1.049
- Th-T assay plate reading, mean of three wells (Supplementary Fig. 47) (measurement M15): 1.273
- Th-T assay plate reading, mean of three wells (Supplementary Fig. 47) (measurement M16): 1.57
- Th-T fluorescence, mean of three wells (reading M17, Supplementary Fig. 47 source data): 1.838
- Th-T fluorescence, mean of three wells (reading M18, Supplementary Fig. 47 source data): 2.054
- Th-T fluorescence, mean of three wells (reading M19, Supplementary Fig. 47 source data): 2.206
- Th-T fluorescence, mean of three wells (reading M20, Supplementary Fig. 47 source data): 2.312
- Th-T fluorescence, mean of three wells (reading M21, Supplementary Fig. 47 source data): 2.3414
- Th-T fluorescence, mean of three wells (reading M22, Supplementary Fig. 47 source data): 2.381
- Th-T fluorescence, mean of three wells (reading M23, Supplementary Fig. 47 source data): 2.384
- Th-T fluorescence, mean of three wells (reading M24, Supplementary Fig. 47 source data): 2.421
- Th-T fluorescence, mean of three wells (reading M25, Supplementary Fig. 47 source data): 2.421
- Th-T fluorescence, mean of three wells (reading M26, Supplementary Fig. 47 source data): 2.4278
- Th-T fluorescence, mean of three wells (reading M27, Supplementary Fig. 47 source data): 2.452
- Th-T fluorescence, mean of three wells (reading M28, Supplementary Fig. 47 source data): 2.461
- Th-T fluorescence, mean of three wells (reading M29, Supplementary Fig. 47 source data): 2.478
- Th-T fluorescence, mean of three wells (reading M30, Supplementary Fig. 47 source data): 2.514
- Th-T fluorescence, mean of three wells (reading M31, Supplementary Fig. 47 source data): 2.5151
- Th-T fluorescence, mean of three wells (reading M32, Supplementary Fig. 47 source data): 2.555
- Th-T fluorescence, mean of three wells (reading M33, Supplementary Fig. 47 source data): 2.5475
- Th-T fluorescence, mean of three wells (reading M34, Supplementary Fig. 47 source data): 2.566
- Th-T fluorescence, mean of three wells (reading M35, Supplementary Fig. 47 source data): 2.566
- Th-T fluorescence, mean of three wells (reading M36, Supplementary Fig. 47 source data): 2.598
- Th-T fluorescence, mean of three wells (time course, reading M57): 2.692
- Th-T fluorescence, mean of three wells (time course, reading M58): 2.694
- Th-T fluorescence, mean of three wells (time course, reading M59): 2.7314
- Th-T fluorescence, mean of three wells (time course, reading M60): 2.723
- Th-T fluorescence, mean of three wells (time course, reading M61): 2.703
- Th-T fluorescence, mean of three wells (time course, reading M62): 2.708
- Th-T fluorescence, mean of three wells (time course, reading M63): 2.7
- Th-T fluorescence, mean of three wells (time course, reading M64): 2.715
- Th-T fluorescence, mean of three wells (time course, reading M65): 2.696
- Th-T fluorescence, mean of three wells (time course, reading M66): 2.7072
- Th-T fluorescence, mean of three wells (time course, reading M67): 2.703
- Th-T fluorescence, mean of three wells (time-course reading M97, Supplementary Fig. 47 source data): 2.693
- Th-T fluorescence, mean of three wells (time-course reading M98, Supplementary Fig. 47 source data): 2.706
- Th-T fluorescence, mean of three wells (time-course reading M99, Supplementary Fig. 47 source data): 2.707
- Th-T fluorescence, mean of three wells (time-course reading M100, Supplementary Fig. 47 source data): 2.682
- Th-T fluorescence, mean of three wells (time-course reading M101, Supplementary Fig. 47 source data): 2.67
- Th-T fluorescence, mean of three wells (time-course reading M102, Supplementary Fig. 47 source data): 2.671
- Th-T fluorescence, mean of three wells (time-course reading M103, Supplementary Fig. 47 source data): 2.705
- Th-T fluorescence, mean of three wells (time-course reading M104, Supplementary Fig. 47 source data): 2.674
- Th-T fluorescence, mean of three wells (time-course reading M105, Supplementary Fig. 47 source data): 2.704
- Th-T fluorescence, mean of three wells (time-course reading M106, Supplementary Fig. 47 source data): 2.676
- Th-T fluorescence, mean of three wells (time-course reading M107, Supplementary Fig. 47 source data): 2.6621
- Th-T fluorescence, mean of three wells (time-course reading M108, Supplementary Fig. 47 source data): 2.675
- Th-T fluorescence, mean of three wells (time-course reading M109, Supplementary Fig. 47 source data): 2.6837
- Th-T fluorescence, mean of three wells (time-course reading M110, Supplementary Fig. 47 source data): 2.682
- Th-T fluorescence, mean of three wells (time-course reading M111, Supplementary Fig. 47 source data): 2.679
- Th-T fluorescence, mean of three wells (time-course reading M112, Supplementary Fig. 47 source data): 2.691
- Th-T fluorescence, mean of three wells (time-course reading M113, Supplementary Fig. 47 source data): 2.675
- Th-T fluorescence, mean of three wells (time-course reading M114, Supplementary Fig. 47 source data): 2.674
- Th-T fluorescence, mean of three wells (time-course reading M115, Supplementary Fig. 47 source data): 2.688
- Th-T fluorescence, mean of three wells (time-course reading M116, Supplementary Fig. 47 source data): 2.67
